Experimental data reported in patent publication US20260098061A1, “EPHA2-BINDING PENDING PEPTIDE AND COMPOSITION COMPRISING SAME” (PeptiDream Inc., priority 2022, published 2026).
Numbered stars: 1 amine (or outer) side, 2 acyl side, 3 side chain; on linkers, the order of the positions; unused ones are H or OH. Bridge positions count the residues as written; N and C are the ends. Square brackets hold non-standard residues; d marks the D form. Side chains are listed from the residue outwards. Peptide text beside a SMILES is read from it. * marks the point of attachment. Trp(1-Me,7-Cl) = Cn1cc(C[C@H](N)C(=O)O)c2cccc(Cl)c21; dPhe(3-CONH2) = NC(=O)c1cccc(C[C@@H](N)C(=O)O)c1; NMePhe(4-Cl) = CN[C@@H](Cc1ccc(Cl)cc1)C(=O)O; Piperazinyl(4-CH2COOH) = O=C(O)CN1CCN(*)CC1; Trp(1-Me) = Cn1cc(C[C@H](N)C(=O)O)c2ccccc21; NMe3Pal = CN[C@@H](Cc1cccnc1)C(=O)O; NMeF = CN[C@@H](Cc1ccccc1)C(=O)O; Gly(cBu) = N[C@H](C(=O)O)C1CCC1; NMeE = CN[C@@H](CCC(=O)O)C(=O)O; Aad = N[C@@H](CCCC(=O)O)C(=O)O; NMeN = CN[C@@H](CC(N)=O)C(=O)O; dAhp(2) = CCCCC[C@@H](N)C(=O)O; Chg = N[C@H](C(=O)O)C1CCCCC1; CO = O=C([*:1])[*:2]

The compounds below were run against T1, Recombinant Human EphA2 Fc Protein (Homo sapiens, UniProt P29317) (assay: SPR interaction analysis (Biacore T200), kinetics of peptides against EphA2). Details: Recombinant Human EphA2 Fc Protein captured by Human Antibody Capture kit; single-cycle kinetics; 25° C.; HBS-P+ buffer with 1% DMSO.
T1 construct: purchased Elabscience
Type: binding
In short: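 On a Biacore T200 at 25° C, Fc-tagged human EphA2 was captured via anti-human antibody; peptides ran as five serial dilutions in HBS-P+ pH 7.4 with 1% DMSO by single-cycle kinetics. Baseline-subtracted data fitted for ka and kd, from which KD was derived.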

Kd, < 1 nM:
CNC(=O)C[C@@H]1NC(=O)[C@H](CC(C)C)NC(=O)[C@H](CC(N)=O)NC(=O)[C@H](Cc2cccnc2)N(C)C(=O)[C@@H](C)NC(=O)CSC[C@@H](C(N)=O)NC(=O)[C@H](CCCC(N)=O)NC(=O)[C@H]([C@@H](C)O)NC(=O)[C@H](Cc2cn(C)c3ccccc23)NC(=O)[C@H](CCCCNC(=O)N2CCN(CC(=O)O)CC2)NC(=O)[C@H](Cc2cn(C)c3ccccc23)NC(=O)[C@H](CCC(=O)O)N(C)C1=O [PDC_EphA2-00018531, da-Me3Py-N-L-Nmm-MeE-W1Me-KCOpipzaa-W1Me-T-Hgn-C-NH2] ({CH2CO}-[dA][NMe3Pal]NLD(NHMe)[NMeE][Trp(1-Me)]K([CO-Piperazinyl(4-CH2COOH)])[Trp(1-Me)]T[Aad](NH2)C-NH2; thioether N-12)
CC(C)C[C@@H]1NC(=O)[C@H](CC(N)=O)NC(=O)[C@H](Cc2cccnc2)N(C)C(=O)[C@@H](C)NC(=O)CSC[C@@H](C(N)=O)NC(=O)[C@H](CCCC(N)=O)NC(=O)[C@H]([C@@H](C)O)NC(=O)[C@H](Cc2cn(C)c3ccccc23)NC(=O)[C@H](CCCCNC(=O)N2CCN(CC(=O)O)CC2)NC(=O)[C@H](Cc2cn(C)c3ccccc23)NC(=O)[C@H](CCC(=O)O)N(C)C(=O)[C@H](CC(=O)N(C)C)NC1=O [PDC_EphA2-00018532, da-Me3Py-N-L-Ndm-MeE-W1Me-KCOpipzaa-W1Me-T-Hgn-C-NH2] ({CH2CO}-[dA][NMe3Pal]NLD(NMe2)[NMeE][Trp(1-Me)]K([CO-Piperazinyl(4-CH2COOH)])[Trp(1-Me)]T[Aad](NH2)C-NH2; thioether N-12)
CNC(=O)C[C@@H]1NC(=O)[C@H]([C@@H](C)O)NC(=O)[C@H](Cc2cn(C)c3ccccc23)NC(=O)[C@H](CCCCNC(=O)N2CCN(CC(=O)O)CC2)NC(=O)[C@H](Cc2cn(C)c3ccccc23)NC(=O)[C@H](CCC(=O)O)N(C)C(=O)[C@H](CCCC(N)=O)NC(=O)[C@H](CC(C)C)NC(=O)[C@H](CC(N)=O)NC(=O)[C@H](Cc2cccnc2)N(C)C(=O)[C@@H](C)NC(=O)CSC[C@@H](C(N)=O)NC1=O [PDC_EphA2-00018533, da-Me3Py-N-L-Hgn-MeE-W1Me-KCOpipzaa-W1Me-T-Nmm-C-NH2] ({CH2CO}-[dA][NMe3Pal]NL[Aad](NH2)[NMeE][Trp(1-Me)]K([CO-Piperazinyl(4-CH2COOH)])[Trp(1-Me)]TD(NHMe)C-NH2; thioether N-12)
CC(C)C[C@@H]1NC(=O)[C@H](CC(N)=O)NC(=O)[C@H](Cc2cccnc2)N(C)C(=O)[C@@H](C)NC(=O)CSC[C@@H](C(N)=O)NC(=O)[C@H](CC(=O)N(C)C)NC(=O)[C@H]([C@@H](C)O)NC(=O)[C@H](Cc2cn(C)c3ccccc23)NC(=O)[C@H](CCCCNC(=O)N2CCN(CC(=O)O)CC2)NC(=O)[C@H](Cc2cn(C)c3ccccc23)NC(=O)[C@H](CCC(=O)O)N(C)C(=O)[C@H](CCCC(N)=O)NC1=O [PDC_EphA2-00018534, da-Me3Py-N-L-Hgn-MeE-W1Me-KCOpipzaa-W1Me-T-Ndm-C-NH2] ({CH2CO}-[dA][NMe3Pal]NL[Aad](NH2)[NMeE][Trp(1-Me)]K([CO-Piperazinyl(4-CH2COOH)])[Trp(1-Me)]TD(NMe2)C-NH2; thioether N-12)
CCCCC[C@H]1NC(=O)CSC[C@@H](C(N)=O)NC(=O)[C@H](CCCC(N)=O)NC(=O)[C@H]([C@@H](C)O)NC(=O)[C@H](Cc2cn(C)c3ccccc23)NC(=O)[C@H](CCCCNC(=O)N2CCN(CC(=O)O)CC2)NC(=O)[C@H](Cc2cn(C)c3ccccc23)NC(=O)[C@H](Cc2ccccc2)N(C)C(=O)[C@H](CCCC(N)=O)NC(=O)[C@H](C2CCCCC2)NC(=O)[C@H](CC(N)=O)NC(=O)[C@H](Cc2cccnc2)N(C)C1=O [PDC_EphA2-00018535, dahp-Me3Py-N-Chg-Hgn-MeF-W1Me-KCOpipzaa-W1Me-T-Hgn-C-NH2] ({CH2CO}-[dAhp(2)][NMe3Pal]N[Chg][Aad](NH2)[NMeF][Trp(1-Me)]K([CO-Piperazinyl(4-CH2COOH)])[Trp(1-Me)]T[Aad](NH2)C-NH2; thioether N-12)
CNC(=O)C[C@@H]1NC(=O)[C@H](C2CCCCC2)NC(=O)[C@H](CC(N)=O)NC(=O)[C@H](Cc2cccnc2)N(C)C(=O)[C@@H](C)NC(=O)CSC[C@@H](C(N)=O)NC(=O)[C@H](CCCC(N)=O)NC(=O)[C@H]([C@@H](C)O)NC(=O)[C@H](Cc2cn(C)c3ccccc23)NC(=O)[C@H](CCCCNC(=O)N2CCN(CC(=O)O)CC2)NC(=O)[C@H](Cc2cn(C)c3ccccc23)NC(=O)[C@H](Cc2ccccc2)N(C)C1=O [PDC_EphA2-00018536, da-Me3Py-N-Chg-Nmm-MeF-W1Me-KCOpipzaa-W1Me-T-Hgn-C-NH2] ({CH2CO}-[dA][NMe3Pal]N[Chg]D(NHMe)[NMeF][Trp(1-Me)]K([CO-Piperazinyl(4-CH2COOH)])[Trp(1-Me)]T[Aad](NH2)C-NH2; thioether N-12)
C[C@H]1NC(=O)CSC[C@@H](C(N)=O)NC(=O)[C@H](CCCC(N)=O)NC(=O)[C@H]([C@@H](C)O)NC(=O)[C@H](Cc2cn(C)c3ccccc23)NC(=O)[C@H](CCCCNC(=O)N2CCN(CC(=O)O)CC2)NC(=O)[C@H](Cc2cn(C)c3ccccc23)NC(=O)[C@H](Cc2ccccc2)N(C)C(=O)[C@H](CC(=O)N(C)C)NC(=O)[C@H](C2CCCCC2)NC(=O)[C@H](CC(N)=O)NC(=O)[C@H](Cc2cccnc2)N(C)C1=O [PDC_EphA2-00018537, da-Me3Py-N-Chg-Ndm-MeF-W1Me-KCOpipzaa-W1Me-T-Hgn-C-NH2] ({CH2CO}-[dA][NMe3Pal]N[Chg]D(NMe2)[NMeF][Trp(1-Me)]K([CO-Piperazinyl(4-CH2COOH)])[Trp(1-Me)]T[Aad](NH2)C-NH2; thioether N-12)
C[C@H]1NC(=O)CSC[C@@H](C(N)=O)NC(=O)[C@H](CCCC(N)=O)NC(=O)[C@H]([C@@H](C)O)NC(=O)[C@H](Cc2cn(C)c3ccccc23)NC(=O)[C@H](CCCCNC(=O)N2CCN(CC(=O)O)CC2)NC(=O)[C@H](Cc2cn(C)c3ccccc23)NC(=O)[C@H](Cc2ccc(Cl)cc2)N(C)C(=O)[C@H](CCCC(N)=O)NC(=O)[C@H](C2CCCCC2)NC(=O)[C@H](CC(N)=O)NC(=O)[C@H](Cc2cccnc2)N(C)C1=O [PDC_EphA2-00018538, da-Me3Py-N-Chg-Hgn-MeF4C-W1Me-KCOpipzaa-W1Me-T-Hgn-C-NH2] ({CH2CO}-[dA][NMe3Pal]N[Chg][Aad](NH2)[NMePhe(4-Cl)][Trp(1-Me)]K([CO-Piperazinyl(4-CH2COOH)])[Trp(1-Me)]T[Aad](NH2)C-NH2; thioether N-12)
CNC(=O)C[C@@H]1NC(=O)[C@H]([C@@H](C)O)NC(=O)[C@H](Cc2cn(C)c3ccccc23)NC(=O)[C@H](CCCCNC(=O)N2CCN(CC(=O)O)CC2)NC(=O)[C@H](Cc2cn(C)c3ccccc23)NC(=O)[C@H](Cc2ccccc2)N(C)C(=O)[C@H](CCCC(N)=O)NC(=O)[C@H](C2CCCCC2)NC(=O)[C@H](CC(N)=O)NC(=O)[C@H](Cc2cccnc2)N(C)C(=O)[C@@H](C)NC(=O)CSC[C@@H](C(N)=O)NC1=O [PDC_EphA2-00018539, da-Me3Py-N-Chg-Hgn-MeF-W1Me-KCOpipzaa-W1Me-T-Nmm-C-NH2] ({CH2CO}-[dA][NMe3Pal]N[Chg][Aad](NH2)[NMeF][Trp(1-Me)]K([CO-Piperazinyl(4-CH2COOH)])[Trp(1-Me)]TD(NHMe)C-NH2; thioether N-12)
C[C@H]1NC(=O)CSC[C@@H](C(N)=O)NC(=O)[C@H](CC(=O)N(C)C)NC(=O)[C@H]([C@@H](C)O)NC(=O)[C@H](Cc2cn(C)c3ccccc23)NC(=O)[C@H](CCCCNC(=O)N2CCN(CC(=O)O)CC2)NC(=O)[C@H](Cc2cn(C)c3ccccc23)NC(=O)[C@H](Cc2ccccc2)N(C)C(=O)[C@H](CCCC(N)=O)NC(=O)[C@H](C2CCCCC2)NC(=O)[C@H](CC(N)=O)NC(=O)[C@H](Cc2cccnc2)N(C)C1=O [PDC_EphA2-00018540, da-Me3Py-N-Chg-Hgn-MeF-W1Me-KCOpipzaa-W1Me-T-Ndm-C-NH2] ({CH2CO}-[dA][NMe3Pal]N[Chg][Aad](NH2)[NMeF][Trp(1-Me)]K([CO-Piperazinyl(4-CH2COOH)])[Trp(1-Me)]TD(NMe2)C-NH2; thioether N-12)
CC(C)[C@@H]1NC(=O)[C@H](Cc2cn(C)c3c(Cl)cccc23)NC(=O)[C@H](CC(N)=O)N(C)C(=O)[C@H](CCCC(N)=O)NC(=O)[C@H](C2CCC2)NC(=O)[C@H](CC(N)=O)NC(=O)[C@H](Cc2ccccc2)N(C)C(=O)[C@@H](Cc2cccc(C(N)=O)c2)NC(=O)CSC[C@@H](C(N)=O)NC(=O)[C@H](CCCC(N)=O)NC(=O)[C@H]([C@@H](C)O)NC(=O)[C@H](Cc2cn(C)c3ccccc23)NC1=O [PDC_EphA2-00019421, df3CON-MeF-N-Cbg-Hgn-MeN-W1Me7Cl-V-W1Me-T-Hgn-C-NH2] ({CH2CO}-[dPhe(3-CONH2)][NMeF]N[Gly(cBu)][Aad](NH2)[NMeN][Trp(1-Me,7-Cl)]V[Trp(1-Me)]T[Aad](NH2)C-NH2; thioether N-12)
CC(C)C[C@@H]1NC(=O)[C@H](CC(N)=O)NC(=O)[C@H](Cc2ccccc2)N(C)C(=O)[C@@H](Cc2cccc(C(N)=O)c2)NC(=O)CSC[C@@H](C(N)=O)NC(=O)[C@H](CCCC(N)=O)NC(=O)[C@H]([C@@H](C)O)NC(=O)[C@H](Cc2cn(C)c3ccccc23)NC(=O)[C@H](C(C)C)NC(=O)[C@H](Cc2cn(C)c3c(Cl)cccc23)NC(=O)[C@H](CC(N)=O)N(C)C(=O)[C@H](CCCC(N)=O)NC1=O [PDC_EphA2-00019422, df3CON-MeF-N-L-Hgn-MeN-W1Me7Cl-V-W1Me-T-Hgn-C-NH2] ({CH2CO}-[dPhe(3-CONH2)][NMeF]NL[Aad](NH2)[NMeN][Trp(1-Me,7-Cl)]V[Trp(1-Me)]T[Aad](NH2)C-NH2; thioether N-12)
CC(C)C[C@@H]1NC(=O)[C@H](CC(N)=O)NC(=O)[C@H](Cc2ccccc2)N(C)C(=O)[C@@H](Cc2cccc(C(N)=O)c2)NC(=O)CSC[C@@H](C(N)=O)NC(=O)[C@H](CCCC(N)=O)NC(=O)[C@H]([C@@H](C)O)NC(=O)[C@H](Cc2cn(C)c3ccccc23)NC(=O)[C@H](C(C)C)NC(=O)[C@H](Cc2cn(C)c3ccccc23)NC(=O)[C@H](CC(N)=O)N(C)C(=O)[C@H](CCCC(N)=O)NC1=O [PDC_EphA2-00019423, df3CON-MeF-N-L-Hgn-MeN-W1Me-V-W1Me-T-Hgn-C-NH2] ({CH2CO}-[dPhe(3-CONH2)][NMeF]NL[Aad](NH2)[NMeN][Trp(1-Me)]V[Trp(1-Me)]T[Aad](NH2)C-NH2; thioether N-12)
